# Data as given in patent publication US20140100156A1 (SANOFI, priority 2012, published 2014).
# Columns and labels:
# Format in all cases: in vivo
# female NMRI-mice = assay: Gastric emptying and intestinal passage in mice
# Procedure: Female NMRI-mice of a body weight between 20 and 30 g were used. Mice were adapted to housing conditions for at least one week.
# Mice were overnight fasted, while water remained available all the time. On the study day, mice were weighed, single-caged and allowed access to 500 mg of feed for 30 min, while water was removed. At the end of the 30 min feeding period, remaining feed was removed and weighed. 60 min later, a coloured, non-caloric bolus was instilled via gavage into the stomach. The test compound/reference compound or its vehicle in the control group was administered subcutaneously, to reach Cmax when coloured bolus was administered. After another 30 min, the animals were sacrificed and the stomach and the small intestine prepared. The filled stomach was weighed, emptied, carefully cleaned and dried and reweighed. The calculated stomach content indicated the degree of gastric emptying. The small intestine was straightened without force and measured in length. Then the distance from the gastric beginning of the gut to the tip of the farthest travelled intestinal content bolus was measured. The intestinal passage was given as relation in percent of the latter distance and the total length of the small intestine.
# Statistical analyses were performed with Everstat 6.0 by 1-way-ANOVA, followed by Dunnetts or Newman-Keuls as post-hoc test, respectively. Differences were considered statistically significant at the p<0.05 level. As post hoc test Dunnet's Test was applied to compare versus vehicle control, only. Newman-Keul's Test was applied for all pairwise comparisons (i.e. versus vehicle and reference groups).
# 30 min later, the assessment of stomach contents and intestinal passage was done (FIG. 1a, b).
# In another study, female NMRI-mice, weighing on average 25-30 g, were administered subcutaneously 0.02 and 0.002 mg/kg of SEQ ID NO: 97 or phosphate buffered saline (vehicle control), 30 min prior to the administration of the coloured bolus. 30 min later, the assessment of stomach contents and intestinal passage was done (FIG. 1c, d).
# [1] = test system: female diet-induced obese (DIO) C57BL/6NCrl mice; assay: Acute effect on blood glucose in fed female diet-induced obese (DIO) C57BL/6NCrl mice
# From the text: (§1) Female C57BL/6NCrl mice were housed in groups in a specific pathogen-free barrier facility on a 12-h light/dark cycle with free access to water and high-fat diet. After 10 months on high-fat diet, mice were stratified to treatment groups (n=8), so that each group had similar mean body weight.
# An aged-matched group with ad-libitum access to standard chow was included as standard control group.
# Before the experiment, mice were subcutaneously (s.c.) injected with vehicle solution and weighed for 3 days to acclimate them to the procedures.
# 1) Acute effect on blood glucose in fed DIO mice: initial blood samples were taken just before first administration (s.c.) of vehicle (phosphate buffer solution) or the exendin-4 derivatives at doses of 3, 10, and 100 μg/kg (dissolved in phosphate puffer), respectively. The volume of administration was 5 mL/kg. The animals had access to water and their corresponding diet during the experiment, food consumption was determined at all time points of blood sampling. Blood glucose levels were measured at t=0.5 h, t=1 h, t=2 h, t=4 h, t=6 h, t=8 h, and t=24 h (method: d-glucose hexokinase, hemolysate, AU640 Beckman Coulter). Blood sampling was performed by tail incision without anaesthesia.
# (§2) Statistical analyses were performed with Everstat 6.0 by repeated measures two-way ANOVA and Dunnetts post-hoc analyses (glucose profile) and 1-way-ANOVA, followed by Dunnetts post-hoc test (body weight, body fat). Differences versus vehicle-treated DIO control mice were considered statistically significant at the p<0.05 level.
# After blood sampling to determine the blood glucose baseline level, fed diet-induced obese female C57BL/6NCrI mice were administered 3, 10 or 100 μg/kg of SEQ ID NO: 97 or phosphate buffered solution (vehicle control on standard or high-fat diet) subcutaneously. At predefined time points, more blood samples were taken to measure blood glucose and generate the blood glucose profile over 24 h.
# [2] = Subchronic effect on body weight and body fat in female DIO C57BL/6NCrl mice; details: 4 weeks, mean
# Procedure: as §1
# 2) Subchronic effect on body weight: all animals were treated once daily s.c. in the morning, at the beginning of the light phase (12 h lights on) with either vehicle or exendin-4 derivatives at the abovementioned doses for 4 weeks. Body weight was recorded daily. On days 6 and 28, total fat mass was measured by nuclear magnetic resonance (NMR) using a Bruker minispec (Ettlingen, Germany).
# as §2
# Female obese C57BL/6NCrl mice were treated for 4 weeks once daily subcutaneously in the morning, at the beginning of the light phase (12 h lights on) with 3, 10 or 100 μg/kg SEQ ID NO: 97 or vehicle. Body weight was recorded daily, and body fat content was determined before the start of treatment and after 4 weeks of treatment.
# [3] = 0.002 mg/kg s.c., versus PBS-control (second study)
# [4] = 0.02 mg/kg s.c., study with reference compound Liraglutide, versus vehicle
# [5] = 0.02 mg/kg s.c., versus PBS-control (second study)
substance,measurement,setting,value
"SEQ ID NO: 97: exendin-4 derivative, K(γE-x53) in position 14 (HXQGTFTSDLSKQKDSRRAQDFIEWLKNGGPSSGAPPPS; K14 side chain γE-x53; Exendin-4-analogue)",gastric content increased by,female NMRI-mice; [3],47%
same,intestinal passage reduced by,female NMRI-mice; [3],63%
same,gastric content increased by,female NMRI-mice; [4],90%
same,intestinal passage reduced by,female NMRI-mice; [4],67%
same,gastric content increased by,female NMRI-mice; [5],37%
same,intestinal passage reduced by,female NMRI-mice; [5],43%
same,duration of decrease in blood glucose compared to DIO control mice,[1]; high dose (100 μg/kg s.c.),> 24 h
same,duration of decrease in blood glucose compared to DIO control mice,[1]; low dose (3 μg/kg s.c.),at least 8 h
same,duration of decrease in blood glucose compared to DIO control mice,[1]; medium dose (10 μg/kg s.c.),at least 8 h
same,Body fat change,[2]; 3 μg/kg s.c. once daily,-0.5 g
same,Overall weight change,[2]; 3 μg/kg s.c. once daily,-0.9 g
same,Body fat change,[2]; 10 μg/kg s.c. once daily,-2.5 g
same,Overall weight change,[2]; 10 μg/kg s.c. once daily,-3.0 g
same,Body fat change,[2]; 100 μg/kg s.c. once daily,-2.4 g
same,Overall weight change,[2]; 100 μg/kg s.c. once daily,-2.3 g
